This is an account of results in PMC5786306, “An AKAP-Lbc-RhoA interaction inhibitor promotes the translocation of aquaporin-2 to the plasma membrane of renal collecting duct principal cells” (PLoS ONE, 2018).

Assay [1] relates to AQP2 localization and F-actin in primary IMCD cells. Kind of assay: Immunofluorescence microscopy of AQP2 and F-actin in primary IMCD cells. In kind it is cell-based, rat. An excerpt:
Primary rat renal inner medullary collecting duct (IMCD) cells were obtained and cultured as previously described. AQP2 was detected with specific rabbit (H27 antibody) and secondary Cy3-coupled antibodies, and F-actin was visualized with Alexa Fluor 647-Phalloidin by laser scanning microscopy (LSM780; Zeiss Jena, Germany) as described.
Fig 8 Scaff10-8 promotes the redistribution of AQP2 to the plasma membrane of primary IMCD cells, which is independent of cAMP elevation and associated with depolymerization of F-actin. (A) Upper panel. IMCD cells were treated with DMSO (1%; control), the solvent of Scaff10-8, or forskolin (10 μM, 30 min) to stimulate cAMP synthesis. Lower panels: The cells were treated for 1 hour with Scaff10-8 (30 μM) alone (control) or with Scaff10-8 and forskolin. Forskolin (10 μM) was added for the final 30 min of Scaff10-8 incubation. AQP2 (green) was detected with specific primary and Cy3-coupled secondary antibodies, F-actin (red) with Alexa Fluor 647-Phalloidin and nuclei with DAPI (blue). Signals were visualized using a laser scanning microscope. Representative images are shown. n = 3. The magnified views were derived from the indicated boxes. (B) The signal intensities arising from intracellular and plasma membrane AQP2 were recorded, related to nuclear signal intensities, and the ratios of plasma membrane to intracellular fluorescence signal intensities were calculated (n = 30 cells per condition). Ratios > 1 indicate a predominant localization of AQP2 at the plasma membrane. Statistically significant differences were calculated using one-way ANOVA with posthoc Bonferroni. Mean ± SEM; *, p ≤ 0.05; *** p ≤ 0.001.

The subject of assay [2] is AQP2 insertion into the plasma membrane of IMCD cells. In words: Biotinylation of cell surface proteins. In kind it is cell-based, rat. The following applies: Scaff10-8 30 μM, 1 or 24 h, forskolin 30 μM, 30 min. The method, then:
The assay was performed according to Bogum et al.. IMCD cells were treated with Scaff10-8 at a concentration of 30 μM for 1 or 24 h (0.3% DMSO final concentration). DMSO (0.3%) was used as a control for the 24 h of incubation. Cells were stimulated with forskolin (30 min, 30 μM). Cells were washed twice with ice-cold PBS and incubated with biotinylation buffer (500 μg Biotin per well; 10 mM triethanolamine; 150 mM NaCl; 1 mM MgCl2; 0.1 mM CaCl2; pH 8.0) for 60 min at 4°C. After two washing steps with biotinylation buffer, cells were incubated for 10 min with quenching buffer (50 mM NH4Cl in PBS) at 4°C. Lysates were prepared using biotinylation lysis buffer 1 (SLB; 0.5% Triton X-100; 0.2% BSA; Complete mini EDTA-free). Lysates were sonicated and incubated for 20 min at 37°C. Cell debris was removed by centrifugation (30 min, 15,000x g, 4°C). Lysates were incubated with 80 μl streptavidin agarose beads at 4°C overnight. Beads were washed three times with biotinylation lysis buffer 1 and 2 (SLB; 0.5% Triton X-100; Complete mini EDTA-free). Proteins were eluted using sample buffer and analyzed by Western blotting.
(A) IMCD cells were treated with either compound (30 μM) or DMSO for 1 or 24 h. Membrane proteins were biotinylated followed by precipitation with streptavidin agarose beads. […] (B) Signals from A were quantified by densitometric analysis. […]

The test system of assay [3] is hypercholesterolemic patients. Also noted: method as in PMID 26575415, PMID 21858457. The following applies: cited from earlier work.
In another assay the target is T1, untagged RhoA (human, UniProt P61586 1-193).
T1 construct: RhoA; also called unlabeled RhoA; source: recombinant, purified
Kind of assay: MST; GFP-AKAP-Lbc/DHPH constant at 150 nM, unlabeled RhoA titrated 36.01 nM-590 uM in MST buffer; 1 h at room temperature; Monolith NT.115. The following applies: both partners purified.

T1 sequence (P61586 whole entry): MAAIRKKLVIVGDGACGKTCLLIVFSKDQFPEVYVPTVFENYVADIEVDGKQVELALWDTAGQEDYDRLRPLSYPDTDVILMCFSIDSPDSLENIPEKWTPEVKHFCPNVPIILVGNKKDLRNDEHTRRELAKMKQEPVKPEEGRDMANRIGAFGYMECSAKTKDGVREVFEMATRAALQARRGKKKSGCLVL

Regarding `C=C[C@@]1(C)CC(=O)[C@]2(O)[C@@]3(C)[C@@H](O)CCC(C)(C)[C@@H]3[C@H](O)[C@H](OC(C)=O)[C@@]2(C)O1` [forskolin, reference compound], in assay [1] (Scaff10-8 30 μM alone, forskolin alone), the F-actin entry is “caused depolymerization”. In addition, in assay [1] (Scaff10-8 30 μM, 1 h, no forskolin, forskolin 10 μM, 30 min), the “localization of AQP2” value is reported as “induced its redistribution to the plasma membrane”. Further, the “insertion of AQP2 into the plasma membrane” value in assay [2] is reported as “induced the membrane insertion of AQP2”.
Take `CCC(C)(C)C(=O)O[C@H]1C[C@@H](C)C=C2C=C[C@H](C)[C@H](CC[C@@H]3C[C@@H](O)CC(=O)O3)[C@H]21` [simvastatin]: the “diuresis and urine osmolality” value in assay [3] is “reduced diuresis and increased urine osmolality”.

B1: GFP-AKAP-Lbc/DHPH (domain or fragment)
chain: EAESWSRIIDSKFLKQQKKDVVKRQEVIYELMQTEFHHVRTLKIMSGVYSQGMMADLLFEQQMVEKLFPCLDELISIHSQFFQRILERKKESLVDKSEKNFLIKRIGDVLVNQFSGENAERLKKTYGKFCGQHNQSVNYFKDLYAKDKRFQAFVKKKMSSSVVRRLGIPECILLVTQRITKYPVLFQRILQCTKDNEVEQEDLAQSLSLVKDVIGAVDSKVASYEKKVRLNEIYTKTDSKSIMRMKSGQMFAKEDLKRKKLVRDGSVFLKNAAGRLKEVQAVLLTDILVFLQEKDQKYIFASLDQKSTVISLKKLIVREVAHEEKGLFLISMGMTDPEMVEVHASSKEERNSWIQIIQDTINTL
modifications: GFP and His6 tags left out. Limits are codons 1972-2335, from bp 5,914-7,005 of CCDS32320.1 (human CDS); the nucleotide changes only removed rare codons. The range encloses the annotated DH …
Take B1: the affinity in the assay with untagged RhoA, expressed as Kd, was 42 µM.
